Patent US10711314B2, “Methods for diagnosing IDH-mutant cell proliferation disorders” (Agios Pharmaceuticals, Inc., priority 2009, dated 2020)
“And” between values parts separate entries of the source, which are not always exact repeats. Equal values may be shown once. Read-outs that look alike come from different tables or passages of the source.

What was measured:
[1] = molecular target: T1, IDH1 wt (Homo sapiens, UniProt O75874); assay: IDH1 wt assay (wild type vs mutant selectivity); assay type: biochemical
T1 construct: The resultant fragments for IDH1 (full length) and IDH2 (residues 40-452) were cloned into vector pET41a; made in house; host or cells: E. coli
Source text: (§1) The selectivity between wild type vs mutant could be >20-fold.

[2] = molecular target: T2, IDH1 R132H (Homo sapiens, UniProt O75874, R132H); assay: High throughput screening for IDH1 R132H inhibitors (NADPH/αKG, resazurin detection); assay type: biochemical; details: for IC50 Ratio (40/4): ratio of ICDH IC50 at 40 uM vs 4 uM NADPH
T2 construct: The resultant fragments for IDH1 (full length) and IDH2 (residues 40-452) were cloned into vector pET41a; made in house; host or cells: E. coli
Procedure: Assays were conducted in a volume of 76 ul assay buffer (150 mM NaCl, 10 mM MgCl2, 20 mM Tris pH 7.5, 0.03% bovine serum albumin) as follows in a standard 384-well plate: To 25 ul of substrate mix (8 uM NADPH, 2 mM αKG), 1 ul of test compound was added in DMSO. […] The reaction was incubated for 50 minutes at room temperature, then 25 ul of detection mix (30 uM resazurin, […]) was added and the mixture further incubated for 5 minutes at room temperature. The conversion of resazurin to resorufin was detected by fluorescent spectroscopy at Ex544 Em590 c/o 590.
as §1

[3] = molecular target: LDHa (Homo sapiens, UniProt P00338); assay: LDHa IC50 (Table 24a); assay type: biochemical
[4] = molecular target: LDHb (Homo sapiens, UniProt P07195); assay: LDHb IC50 (Table 24a); assay type: biochemical
[5] = molecular target: T3, IDH1 wild-type (Homo sapiens, UniProt O75874); assay: Inhibition of oxidative decarboxylation of isocitrate to α-KG by IDH1 wild-type; assay type: biochemical; details: for effect on the oxidative decarboxylation of isocitrate by wild-type ICDH1: added in a titration series
T3 construct: The resultant fragments for IDH1 (full length) and IDH2 (residues 40-452) were cloned into vector pET41a; made in house; host or cells: E. coli Rosetta
Procedure: (§2) In these reactions, the substrate was varied while the cofactor was held constant at 500 uM. All reactions were performed in 150 mM NaCl, 20 mM Tris-Cl, pH 7.5, 10% glycerol, and 0.03% (w/v) BSA). Reaction progress was followed by spectroscopy at 340 nM monitoring the change in oxidation state of the cofactor. Sufficient enzyme was added to give a linear change in absorbance for 10 minutes.
(§3) A well-known regulatory mechanism for control of metabolic enzymes is feedback inhibition, in which the product of the reaction acts as a negative regulator for the generating enzyme.
(§4) Final concentrations: Tris 7.5 20 mM, NaCl 150 mM, MnCl2 2 mM, Glycerol 10%, BSA 0.03%, NADP 0.5 mM, IDH1 wt 1.5 ug/ml, IDH1R132S 30 ug/ml, IDH1R132H 60 ug/ml, DL-isocitrate (5-650 uM).
A reaction containing the wild-type ICDH1, NADP, and α-KG was assembled (under conditions as described above) to which was added in a titration series either (R)-2-hydroxyglutarate or the reaction product of the ICDH1 […] mutant reduction of α-KG to 2-hydroxyglutarate.

[6] = IDH1/2 activity assay, forward reaction (isocitrate and NADP+); assay type: biochemical, human; details: Oxidative (→NADPH), recombinant IDH1; for Ki: inhibition by aKG; for Km: read-out: KM,isocitrate
Procedure: (§5) All reactions were performed in standard enzyme reaction buffer (150 mM NaCl, 20 mM Tris-Cl, pH 7.5, 10 mM MgCl2 and 0.03% (w/v) bovine serum albumin). For determination of kinetic parameters, sufficient enzyme was added to give a linear reaction for 1 to 5 seconds. Enzymatic binding constants were determined using curve fitting algorithms to standard kinetic models with the Sigmaplot software package (Systat Software, San Jose, Calif.). For determination of kcat, enzyme was incubated with 5×Km of substrate and cofactor; consumption of NADPH or NADP was determined by a change in the OD340 over time. In both cases an extinction coefficient of 6200 M^−1 cm^−1 was used for NADPH.

[7] = IDH1/2 activity assay, reverse reaction (α-KG and NADPH); assay type: biochemical, human; details: reductive (→NADP^+)
Procedure: as §5

[8] = molecular target: T4, IDH1 R132S (Homo sapiens, UniProt O75874, R132S); assay: Inhibition of oxidative decarboxylation of isocitrate to α-KG by IDH1 R132S; assay type: biochemical
T4 construct: The resultant fragments for IDH1 (full length) and IDH2 (residues 40-452) were cloned into vector pET41a; made in house; host or cells: E. coli Rosetta
Procedure: as §2, §3, §4

[9] = molecular target: T2, IDH1 R132H; assay: Inhibition of oxidative decarboxylation of isocitrate to α-KG by IDH1 R132H; assay type: biochemical
Procedure: as §2, §3, §4

[10] = tested on: glioblastoma multiforme; details: glioblastoma multiforme patients; cited from earlier work
[11] = Enzyme kinetics of IDH1 wild-type and mutants in reduction of α-KG with NADPH; assay type: biochemical, human; details: for consumption of NADPH in reduction of α-KG: 40 ug/ml of enzyme
Procedure: as §2, with “reactions,” for “reactions, the”, “50” for “150”, “potassium phosphate buffer,” for “NaCl, 20 mM Tris-Cl,”, “6.5,” for “7.5,”, “glycerol,” for “glycerol, and”, “BSA, 5 mM MgCl2, and 40 mM sodium hydrocarbonate.” for “BSA).”

[12] = Reduction of alpha-ketoglutarate with NADH by IDH1 wild-type and mutants; assay type: biochemical, human
Procedure: In order to evaluate the ability of the mutant enzymes to utilize NADH in the reduction of alpha-ketoglutarate, the following experiment was conducted.

[13] = Enzyme kinetics of IDH1 wild-type and mutants in oxidative decarboxylation of isocitrate to α-KG; assay type: biochemical, human
Procedure: as §2
All data was fit to the Hill equation by least-squares regression analysis.

[14] = Recombinant IDH1 enzyme assays (stopped-flow, 340 nm); assay type: biochemical, human; details: NADP+-dependent oxidative decarboxylation of isocitrate, vs wild-type
Procedure: 293T and the human glioblastoma cell lines U87MG and LN-18 were cultured in DMEM, 10% fetal bovine serum. Cells were transfected and selected using standard techniques. Protein expression levels were determined by Western blot analysis using IDHc antibody (Santa Cruz Biotechnology), IDH1 antibody (proteintech), MYC tag antibody (Cell Signaling Technology), and IDH2 antibody (Abcam). Metabolites were extracted from cultured cells and from tissue samples according to close variants of a previously reported method (Lu, W., Kimball, E. & Rabinowitz, J. D. J Am Soc Mass Spectrom 17, 37-50 (2006)), using 80% aqueous methanol (−80° C.) and either tissue scraping or homogenization to disrupt cells. […] For enzyme assays using recombinant IDH1 enzyme, proteins were produced in E. coli and purified using Ni affinity chromatography followed by Sephacryl S-200 size-exclusion chromatography. […] Chirality of 2HG was determined as described previously (Struys, E. A., Jansen, E. E., Verhoeven, N. M. & Jakobs, C. Clin Chem 50, 1391-5 (2004)). […] The IDH1 mutation status of each sample was determined using standard molecular biology techniques as described previously (Yan, H. et al. N Engl J Med 360, 765-73 (2009)). Metabolites were extracted and analyzed by LC-MS/MS as described above. […]

[15] = NADH 0.5 mM, alpha-Ketoglutarate 5 mM

T3 sequence (O75874 whole entry, the tested form may be a part): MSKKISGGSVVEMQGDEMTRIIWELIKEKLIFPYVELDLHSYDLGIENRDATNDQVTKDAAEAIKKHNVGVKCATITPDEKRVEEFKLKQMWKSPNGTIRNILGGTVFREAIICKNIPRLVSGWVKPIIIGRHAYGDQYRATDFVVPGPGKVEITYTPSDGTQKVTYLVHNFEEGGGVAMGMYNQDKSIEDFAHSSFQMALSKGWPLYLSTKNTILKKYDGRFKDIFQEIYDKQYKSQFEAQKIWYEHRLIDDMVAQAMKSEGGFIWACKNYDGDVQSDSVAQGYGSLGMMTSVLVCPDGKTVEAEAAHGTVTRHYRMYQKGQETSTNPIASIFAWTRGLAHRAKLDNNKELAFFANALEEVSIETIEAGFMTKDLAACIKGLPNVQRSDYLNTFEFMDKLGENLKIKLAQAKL
T2 sequence (O75874 whole entry R132H, the tested form may be a part): as the sequence (O75874 whole entry, the tested form may be a part) above, with R132H counted along it
Chain of LDHb (P07195 whole entry, species assumed): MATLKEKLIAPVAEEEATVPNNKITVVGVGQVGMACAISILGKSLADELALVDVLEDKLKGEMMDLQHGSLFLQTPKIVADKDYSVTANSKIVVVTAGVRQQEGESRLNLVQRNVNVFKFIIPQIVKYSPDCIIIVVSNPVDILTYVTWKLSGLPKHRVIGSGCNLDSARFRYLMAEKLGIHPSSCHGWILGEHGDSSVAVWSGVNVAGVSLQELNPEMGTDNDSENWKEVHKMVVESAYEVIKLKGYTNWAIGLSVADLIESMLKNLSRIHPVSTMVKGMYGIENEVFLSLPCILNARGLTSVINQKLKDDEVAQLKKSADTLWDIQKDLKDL
T4 sequence (O75874 whole entry R132S, the tested form may be a part): as the sequence (O75874 whole entry, the tested form may be a part) above, with R132S counted along it
T1 sequence (O75874 whole entry, the tested form may be a part): as the sequence (O75874 whole entry, the tested form may be a part) above

Cc1ccc(C2=NN(c3ccccc3)C(c3cn(CCC(=O)O)nc3-c3ccccc3)C2)cc1 (stereo not shown) [second example]
inhibition of IDH1 wt ([1]; even at 100 uM, 1× Km of NADPH): no inhibition

O=C1NC(=S)S/C1=C\c1cccc(OC(=O)c2cccc(F)c2)c1
IC50 Ratio (40/4) [2]: 1.15
IC50 [3]: 8.61 µM
IC50 [4]: > 100 µM

O=C(O)CCC(O)C(=O)O (stereo not shown) [reaction product 2-HG, 2-hydroxyglutarate]
effect on the oxidative decarboxylation of isocitrate by wild-type ICDH1 [5]: inhibit

R132C
Ki [6]: 61 µM
kcat [6]: 710 s⁻¹
Km [6]: 87 mM
kcat ([7]; WT value estimated (est.)): 550 s⁻¹
Km ([7]; n/a indicates no measureable activity): 300 nM

O=C1NC(=S)S/C1=C/c1cccc(OCc2ccc([N+](=O)[O-])cc2)c1
IC50 Ratio (40/4) [2]: 1.39
IC50 [3]: 12.8 µM
IC50 [4]: > 100 µM

Cc1cc(C(=O)O)ccc1-c1ccc(/C=C2/NC(=O)N(Cc3ccc(Br)cc3)C2=O)o1
IC50 Ratio (40/4) [2]: 1.28
IC50 [3]: 33.8 µM
IC50 [4]: > 100 µM

O=C(O)C(=O)C(C(=O)O)C(O)C(=O)O (stereo not shown) [Oxalomalate, oxalomalate]
Ki ([5]; IDH1 wt 1.5 ug/ml, competitive with isocitrate, NADP 0.5 mM, read-out: Oxalomalate Ki): 955 µM
Ki ([8]; IDH1R132S 30 ug/ml, competitive with isocitrate, NADP 0.5 mM, read-out: Oxalomalate Ki): 510 µM
susceptibility to inhibition by oxalomalate ([8]; R132S mutation compared with wt): approximately a two-fold increase in susceptibility
Ki ([9]; IDH1R132H 60 ug/ml, competitive with isocitrate, NADP 0.5 mM, read-out: Oxalomalate Ki): 951 µM
susceptibility to inhibition by oxalomalate ([9]; R132H mutation compared with wt): essentially unaffected

Cc1c(C=C2Sc3ccccc3C2=O)c(O)n2c(nc3ccccc32)c1C#N [first example]
IC50 when assayed at 100×Km ([2]; IDH1R132H at 100× Km of NADPH): shifted significantly
IC50 ([2]; IDH1R132H, presumably at 10× Km of NADPH): 5.74 µM

Cc1ccc(C2=NN(c3ccccc3)C(c3cn(CCC(=O)O)nc3-c3ccccc3)C2)cc1 (stereo not shown) [drawing 31]
IC50 Ratio (40/4) [2]: 3.38
IDH1wt IC50 @ 1x Km (uM) ([1]; 1x Km of NADPH): NO inhibition
IC50 [3]: 5.92 µM
IC50 [4]: 17.4 µM

Cn1nnc2c(C(N)=O)ncn2c1=O [temozolomide]
tolerability [10]: well tolerated

O=C(O)CC[C@@H](O)C(=O)O [(R)-2-hydroxyglutarate]
effect on the oxidative decarboxylation of isocitrate by wild-type ICDH1 [5]: did not show any effect

Wt: recombinant wild type IDH1 with C-terminal His8 tag expressed in E. coli
consumption of NADPH in reduction of α-KG [11]: unable to consume NADPH
Ki [6]: 610 µM
kcat [6]: 130000 s⁻¹
Km [6]: 0.057 mM
kcat(s^−1) ([7]; WT value estimated (est.)): ~7 (est.) s^−1
consumption of NADH in the presence of alpha-ketoglutarate [12, 15]: no measurable consumption of NADH

R132S: recombinant IDH1 Arg132Ser mutant with C-terminal His8 tag expressed in E. coli
consumption of NADPH in reduction of α-KG [11]: reduced α-KG and consumed NADPH
Ki ([11]; uncompetitive substrate inhibition by α-KG): 24.6 mM
Hill Constant ([11]; α-KG): 0.479
Vmax ([11]; α-KG varied, NADPH 500 uM, pH 6.5): 2.7 µmol/min/mg
increase in Km ([13]; Km for isocitrate compared to wild-type): 20,000 fold
Vmax ([13]; isocitrate varied, cofactor 500 uM): 95 µmol/min/mg
Hill Constant ([13]; isocitrate, fit to Hill equation): 0.479
consumption of NADH in the presence of alpha-ketoglutarate [12, 15]: demonstrated the ability to utilize NADH
Umol/min/mg ([12]; consumption of NADH, individual determinations): 0.7183 Umol/min/mg and 0.6997 Umol/min/mg
Rate (ΔA/sec) ([12]; consumption of NADH, individual determinations, NADH 0.5 mM, alpha-Ketoglutarate 5 mM): 0.001117 ΔA/sec and 0.001088 ΔA/sec
Rate (ΔA/sec) Mean ([12]; consumption of NADH, mean): 0.001103 ΔA/sec
Umol/min/mg Mean ([12]; consumption of NADH, mean): 0.709 Umol/min/mg

O=C(O)CCC(=O)C(=O)O [α-KG, α-ketoglutarate]
Ki [5]: 612 µM
Ki [8]: 45.3 µM
Ki [9]: 28.6 µM

R132H: recombinant IDH1 Arg132His mutant with C-terminal His8 tag expressed in E. coli
decrease in catalytic turnover [14]: 1000 fold
consumption of NADH in the presence of alpha-ketoglutarate [12, 15]: no measurable consumption of NADH

Cc1c(/C=C2\Sc3ccccc3C2=O)c(O)n2c(nc3ccccc32)c1C#N
IC50 Ratio (40/4) [2]: 17.42
IC50 [3]: 25.4 µM
IC50 [4]: 64.1 µM
